Measured values as given in PMC11882969 (Nature Communications, 2025).
Several values for one entry are separate records, joined by “and”; a condition that tells them apart may be missing. Equal values may be shown once. Read-outs that look alike come from different tables or passages of the source.

Target: hCB2 (Homo sapiens, UniProt P34972)
Assay: bioSensAll ebBRET signaling profiling, hCB2
Assay type: cell-based
Parameters: host or cells: HEK293SL cells, transient PEI transfection
Details: for G15 hCB2 / Gq hCB2 / Gs hCB2 / G13 hCB2: raw signal; for EC50: read-out: EC50 [95% CI]; for Emax: normalized to CP-55,940

hCB2, sequence (P34972 whole entry): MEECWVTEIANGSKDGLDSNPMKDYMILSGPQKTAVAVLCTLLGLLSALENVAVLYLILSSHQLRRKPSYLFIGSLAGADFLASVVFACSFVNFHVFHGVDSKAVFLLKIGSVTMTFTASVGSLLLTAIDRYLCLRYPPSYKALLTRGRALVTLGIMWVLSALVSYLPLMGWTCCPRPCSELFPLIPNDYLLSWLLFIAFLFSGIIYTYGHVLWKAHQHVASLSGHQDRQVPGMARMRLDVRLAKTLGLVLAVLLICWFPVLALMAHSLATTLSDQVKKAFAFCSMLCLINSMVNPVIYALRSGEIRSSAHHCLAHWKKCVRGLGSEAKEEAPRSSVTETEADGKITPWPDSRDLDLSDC

SMILES: COC(=O)[C@@](C)(NC(=O)c1cc(C)n(-c2cccc(C(F)(F)F)c2)n1)c1cccs1 [‘1350]
- G15 hCB2 (Log [Compound] (M) -5.05788): 909
- Gq hCB2 (Log [Compound] (M) -5.05788): 1907
- Gs hCB2 (Log [Compound] (M) -5.05788): 9135
- G13 hCB2 (Log [Compound] (M) -5.47381): 332
- G15 hCB2 (Log [Compound] (M) -5.47381): 938
- Gq hCB2 (Log [Compound] (M) -5.47381): 1876
- Gs hCB2 (Log [Compound] (M) -5.47381): 8949
- G13 hCB2 (Log [Compound] (M) -5.89285): 339
- G15 hCB2 (Log [Compound] (M) -5.89285): 882
- Gq hCB2 (Log [Compound] (M) -5.89285): 1888
- Gs hCB2 (Log [Compound] (M) -5.89285): 8825
- G13 hCB2 (Log [Compound] (M) -6.31878): 340
- G15 hCB2 (Log [Compound] (M) -6.31878): 867
- Gq hCB2 (Log [Compound] (M) -6.31878): 1817
- Gs hCB2 (Log [Compound] (M) -6.31878): 8693
- G13 hCB2 (Log [Compound] (M) -6.72585): 337
- G15 hCB2 (Log [Compound] (M) -6.72585): 945
- Gq hCB2 (Log [Compound] (M) -6.72585): 1883
- Gs hCB2 (Log [Compound] (M) -6.72585): 8781
- G13 hCB2 (Log [Compound] (M) -7.14267): 379
- G15 hCB2 (Log [Compound] (M) -7.14267): 858
- Gq hCB2 (Log [Compound] (M) -7.14267): 1709
- Gs hCB2 (Log [Compound] (M) -7.14267): 8728
- G13 hCB2 (Log [Compound] (M) -7.55284): 353
- G15 hCB2 (Log [Compound] (M) -7.55284): 904
- Gq hCB2 (Log [Compound] (M) -7.55284): 1791
- Gs hCB2 (Log [Compound] (M) -7.55284): 8935
- G13 hCB2 (Log [Compound] (M) -8): 375
- G15 hCB2 (Log [Compound] (M) -8): 912
- Gq hCB2 (Log [Compound] (M) -8): 1812
- Gs hCB2 (Log [Compound] (M) -8): 8658
- G13 hCB2 (Log [Compound] (M) -8.22186): 364
- G15 hCB2 (Log [Compound] (M) -8.22186): 883
- Gq hCB2 (Log [Compound] (M) -8.22186): 1883
- Gs hCB2 (Log [Compound] (M) -8.22186): 9640
- G13 hCB2 (Log [Compound] (M) -8.39794): 287
- G15 hCB2 (Log [Compound] (M) -8.39794): 753
- Gq hCB2 (Log [Compound] (M) -8.39794): 1844
- Gs hCB2 (Log [Compound] (M) -8.39794): 8340
- G13 hCB2 (Log [Compound] (M) -8.68787): 322
- G15 hCB2 (Log [Compound] (M) -8.68787): 851
- Gq hCB2 (Log [Compound] (M) -8.68787): 1882
- Gs hCB2 (Log [Compound] (M) -8.68787): 8911
- G13 hCB2 (Log [Compound] (M) -9.15521): 356
- G15 hCB2 (Log [Compound] (M) -9.15521): 841
- Gq hCB2 (Log [Compound] (M) -9.15521): 1859
- Gs hCB2 (Log [Compound] (M) -9.15521): 8948
- G13 hCB2 (Log [Compound] (M) -9.61989): 303
- G15 hCB2 (Log [Compound] (M) -9.61989): 888
- Gq hCB2 (Log [Compound] (M) -9.61989): 1906
- Gs hCB2 (Log [Compound] (M) -9.61989): 8984
- G13 hCB2 (Log [Compound] (M) -10.0969): 348
- G15 hCB2 (Log [Compound] (M) -10.0969): 956
- Gq hCB2 (Log [Compound] (M) -10.0969): 1853
- Gs hCB2 (Log [Compound] (M) -10.0969): 9066
- G13 hCB2 (Log [Compound] (M) -10.5529): 333
- G15 hCB2 (Log [Compound] (M) -10.5529): 902
- Gq hCB2 (Log [Compound] (M) -10.5529): 1805
- Gs hCB2 (Log [Compound] (M) -10.5529): 9374
- G13 hCB2 (Log [Compound] (M) -11.0177): 340
- G15 hCB2 (Log [Compound] (M) -11.0177): 939
- Gq hCB2 (Log [Compound] (M) -11.0177): 1690
- Gs hCB2 (Log [Compound] (M) -11.0177): 9100
- G13 hCB2 (Log [Compound] (M) -11.4949): 323
- G15 hCB2 (Log [Compound] (M) -11.4949): 868
- Gq hCB2 (Log [Compound] (M) -11.4949): 1776
- Gs hCB2 (Log [Compound] (M) -11.4949): 8459
- G13 hCB2 (Log [Compound] (M) -11.9208): 343
- G15 hCB2 (Log [Compound] (M) -11.9208): 862
- Gq hCB2 (Log [Compound] (M) -11.9208): 1776
- Gs hCB2 (Log [Compound] (M) -11.9208): 9036
- G13 hCB2 (Log [Compound] (M) -12.3979): 327
- G15 hCB2 (Log [Compound] (M) -12.3979): 871
- Gq hCB2 (Log [Compound] (M) -12.3979): 1850
- Gs hCB2 (Log [Compound] (M) -12.3979): 8912
- G13 hCB2 (Log [Compound] (M) -12.8861): 293
- G15 hCB2 (Log [Compound] (M) -12.8861): 841
- Gq hCB2 (Log [Compound] (M) -12.8861): 1768
- Gs hCB2 (Log [Compound] (M) -12.8861): 8754
- G13 hCB2 (Log [Compound] (M) -13): 352 and 368
- G15 hCB2 (Log [Compound] (M) -13): 772 and 852
- Gq hCB2 (Log [Compound] (M) -13): 1940 and 1790
- Gs hCB2 (Log [Compound] (M) -13): 8891 and 8980
- EC50 (hCB2 Barr2 + GRK2): 4.2 nM
- EC50 (hCB2 Gi2): 1.6 nM
- EC50 (hCB2 GoB): 2.6 nM
- EC50 (hCB2 Gz): 2.6 nM
- Emax (read-out: Emax [95% CI], hCB2 Barr2 + GRK2): 30%
- Emax (read-out: Emax [95% CI], hCB2 Gi1): 74%
- Emax (read-out: Emax [95% CI], hCB2 Gi2): 61%
- Emax (read-out: Emax [95% CI], hCB2 GoB): 59%
- Emax (read-out: Emax [95% CI], hCB2 Gz): 52%
